Measured values: patent publication US4136116A, “Tricyclic compounds” (Hoffmann-La Roche Inc., priority 1975, dated 1979)
Counter-ions that a name gives are not always drawn.

The compounds below were run on salivation in rabbits (assay: Salivation inhibition in rabbits (pilocarpine-increased salivation; anticholinergic action)). Conditions: light urethane narcosis, 3 mg/kg i.v., pilocarpine 5 mg/kg s.c.
Type: in vivo
Procedure: The low anticholinergic action can be shown by the lack of salivation inhibition in rabbits: The salivation in rabbits under light urethane narcosis was increased by pilocarpine injection (5 mg/kg. s.c.) and the amount of saliva was measured at 5-minute intervals. The inhibition of salivation is expressed as a percentage based upon the salivation of animals which only received pilocarpine.

SMILES | % Inhibition of Salivation [%]
Cc1cccc2c1C=Cc1ccccc1C2=CCC[N+](C)(C)[O-] [1-methyl-5-(3-dimethylaminopropylidene)-5H-dibenzo[a,d]cycloheptene N-oxide hydrochloride] | 14
Cc1cccc2c1C=Cc1ccccc1C2=CCCN(C)C.Cl [1-methyl-5-(3-dimethylaminopropylidene)-5H-dibenzo[a,d]cycloheptene hydrochloride] | 60
CNCCC=C1c2ccccc2C=Cc2c(C)cccc21.Cl [1-methyl-5-(3-methylaminopropylidene)-5H-dibenzo[a,d]cycloheptene hydrochloride] | 60
Cc1cccc2c1CCc1ccccc1C2CCCN(C)C.Cl (stereo not shown) [1-methyl-10,11-dihydro-5-(3-dimethylaminopropyl)-5H-dibenzo[a,d]cycloheptene hydrochloride] | 50
Cc1cccc2c1CCc1ccccc1C2=CCCN(C)C.Cl [1-methyl-10,11-dihydro-5-(3-dimethylaminopropylidene)-5H-dibenzo[a,d]cycloheptene hydrochloride] | 50
CNCCCC1c2ccccc2CCc2c(C)cccc21.Cl (stereo not shown) [1-methyl-10,11-dihydro-5-(3-methylaminopropyl)-5H-dibenzo[a,d]cycloheptene hydrochloride] | 40
CNCCC=C1c2ccccc2CCc2c(C)cccc21.Cl [1-methyl-10,11-dihydro-5-(3-methylaminopropylidene)-5H-dibenzo [a,d]cycloheptene hydrochloride] | 50
